Source: US20250295655A1, “BRUTON'S KINASE INHIBITORS FOR THE TREATMENT OF A SUDDEN ALLERGIC REACTION” (ALK-ABELLÓ A/S, priority 2022, published 2025)

How the values were obtained:
basophils = assay: Basophil activation (CD63 FACS) after allergen stimulation, BTKi added before or after; type: cell-based, human; settings: BTKi 1000 or 5000 nM added before or 1, 5, 15, 30 min after allergen stimulation; vs water control
Protocol: PBMCs were isolated from heparinized blood using Leucoseptubes (Greiner 227390) with Lymfoprep (Fresenius Kabi 1114547). Following isolation, the cells were washed and resuspended in RPMI 0.5% HSA (RPMI 1640 Gibco 72400-021, HSA Sigma A8763) to 0.25× original blood volume. 2 ng/ml of cytokine IL-3 (RD Peprotec cat nr 200-03) was added to the cells for Basophil priming with final 1 ng/ml. 50 μl of the cell suspension was used for each test, corresponding to 200 μl blood.
The test can be carried out with any BTKi. In the present example, the following BTKis were tested: • Acalabrutinib (Cat A-7337, 100 mM in DMSO) was diluted in RPMI 0.5% HSA to a concentration of 10,000 and 2,000 nM. • Ibrutinib was diluted in RPMI 0.5% HSA to a concentration of 20.000, 5.000 and 1.000 nM. • Branebrutinib was diluted in RPMI 0.5% HSA to a concentration of 20.000 and 5.000 nM. • Remibrutinib was diluted in RPMI 0.5% HSA to a concentration of 20.000 and 5.000 nM. • Pirtobrutinib was diluted in RPMI 0.5% HSA to a concentration of 20.000 and 5.000 nM.
Allergens: Grass pollen extract of the species Phleum pratense (ALK) was diluted in RPMI 0.5%-HSA to five concentrations of 100, 10, 1.0, 0.1 and 0.01 ng/ml. House dust mite allergen extract of the species Dermatophagoides pterinussinus (Derp ex) were made in concentrations of 0.1, 1 and 10 ug/ml by dilution in RPMI 0.5% HSA.
The experiment was performed in 96 deep-well plates. 50 μl cell suspension (as described above) was added to each well. 50 μl activation stimuli and 100 μl BTK inhibitor or buffer were added at different time points (t=0 min, 5 min, 15 min or 30 min). Following addition of the components, the plate was incubated at 37° C. water bath for one hour. After incubation, the activation was stopped by adding 500 μl FACS FLOW (BD342003), 0.5% BSA (Fisher scientific BP9703-100)+10 mM EDTA (Invitrogen 15575-038). The plate was centrifuged for 5 min, at 600×G and 4° C. Supernatants were harvested and used for measurement of histamine by ELISA (supplier). Cell pellets were further washed and stained for FACS analysis with CD63 FITC (BD 557288) CD203c APC (e-bio) and CD123 PE (BD340545) using standard FACS staining procedure, 30 min on ice protected from light, followed by fixation with Cell Fix (BD) before analysis on Fortessa flowcytometer. Flowcytometer data was analyzed using FlowJo software and statistical data from here used for data analysis.

[1] = system: mast cell and basophil reactivity to food; settings: ibrutinib daily for up to seven days before allergen exposure; cited from earlier work
JAK2/STAT3 pathway = settings: cited from earlier work
basophil cells = settings: pretreatment of basophil cells before allergen exposure; cited from earlier work
ex-vivo blood basophils = settings: leukemia patient treated with ibrutinib; cited from earlier work

| Structure (SMILES) | activation of cells after stimulation with an allergen (percent activation of basophils) (basophils) | mast cell and basophil reactivity to food (SPT, BAT) [1] | inhibition of JAK2/STAT3 pathway induced by Concavalin A (JAK2/STAT3 pathway) | IgE-mediated histamine release (basophil cells) | IgE-dependent histamine release in ex-vivo blood basophils (ex-vivo blood basophils) |
| --- | --- | --- | --- | --- | --- |
| COc1ccc(F)cc1C(=O)NCc1ccc(-c2nn([C@@H](C)C(F)(F)F)c(N)c2C(N)=O)cc1 [Pirtobrutinib, 5-amino-3-[4-[[(5-fluoro-2-methoxybenzoyl)amino]methyl]phenyl]-1-[(2S)-1,1,1-trifluoropropan-2-yl]pyrazole-4-carboxamide] | able to decrease the activation of cells |  |  |  |  |
| C=CC(=O)N1CCC[C@@H](n2nc(-c3ccc(Oc4ccccc4)cc3)c3c(N)ncnc32)C1 [Ibrutinib, 1-[(3R)-3-[4-amino-3-(4-phenoxyphenyl)-1H-pyrazolo[3,4-d]pyrimidin-1-yl]-1-piperidinyl]-2-propen-1-one] | able to decrease the activation of cells | can reduce mast cell and basophil reactivity | able to inhibit | inhibit IgE-mediated histamine release | largely suppressed |
| CC#CC(=O)N[C@H]1CCCN(c2c(F)cc(C(N)=O)c3[nH]c(C)c(C)c23)C1 [Branebrutinib, 4-[(3S)-3-(but-2-ynoylamino)piperidin-1-yl]-5-fluoro-2,3-dimethyl-1H-indole-7-carboxamide] | able to decrease the activation of cells |  |  |  |  |
| C=CC(=O)N(C)CCOc1c(N)ncnc1-c1cc(F)cc(NC(=O)c2ccc(C3CC3)cc2F)c1C [Remibrutinib, N-[3-[6-amino-5-[2-[methyl(prop-2-enoyl)amino]ethoxy]pyrimidin-4-yl]-5-fluoro-2-methylphenyl]-4-cyclopropyl-2-fluorobenzamide] | able to decrease the activation of cells |  |  |  |  |
